The record followed here is the Kinase Knowledgebase extract (Sharma et al. 2016).

For experiment [1], the target named is PIK3CB (Human) (UniProt P42338). The experiment in a line: Inhibition of PIK3CB Kinase Activity.
Experiment [2] addresses PIK3CA (human) (UniProt P42336). In words: Inhibition of PIK3CA Kinase Activity.

PIK3CB (Human), sequence (P42338 whole entry, looked up): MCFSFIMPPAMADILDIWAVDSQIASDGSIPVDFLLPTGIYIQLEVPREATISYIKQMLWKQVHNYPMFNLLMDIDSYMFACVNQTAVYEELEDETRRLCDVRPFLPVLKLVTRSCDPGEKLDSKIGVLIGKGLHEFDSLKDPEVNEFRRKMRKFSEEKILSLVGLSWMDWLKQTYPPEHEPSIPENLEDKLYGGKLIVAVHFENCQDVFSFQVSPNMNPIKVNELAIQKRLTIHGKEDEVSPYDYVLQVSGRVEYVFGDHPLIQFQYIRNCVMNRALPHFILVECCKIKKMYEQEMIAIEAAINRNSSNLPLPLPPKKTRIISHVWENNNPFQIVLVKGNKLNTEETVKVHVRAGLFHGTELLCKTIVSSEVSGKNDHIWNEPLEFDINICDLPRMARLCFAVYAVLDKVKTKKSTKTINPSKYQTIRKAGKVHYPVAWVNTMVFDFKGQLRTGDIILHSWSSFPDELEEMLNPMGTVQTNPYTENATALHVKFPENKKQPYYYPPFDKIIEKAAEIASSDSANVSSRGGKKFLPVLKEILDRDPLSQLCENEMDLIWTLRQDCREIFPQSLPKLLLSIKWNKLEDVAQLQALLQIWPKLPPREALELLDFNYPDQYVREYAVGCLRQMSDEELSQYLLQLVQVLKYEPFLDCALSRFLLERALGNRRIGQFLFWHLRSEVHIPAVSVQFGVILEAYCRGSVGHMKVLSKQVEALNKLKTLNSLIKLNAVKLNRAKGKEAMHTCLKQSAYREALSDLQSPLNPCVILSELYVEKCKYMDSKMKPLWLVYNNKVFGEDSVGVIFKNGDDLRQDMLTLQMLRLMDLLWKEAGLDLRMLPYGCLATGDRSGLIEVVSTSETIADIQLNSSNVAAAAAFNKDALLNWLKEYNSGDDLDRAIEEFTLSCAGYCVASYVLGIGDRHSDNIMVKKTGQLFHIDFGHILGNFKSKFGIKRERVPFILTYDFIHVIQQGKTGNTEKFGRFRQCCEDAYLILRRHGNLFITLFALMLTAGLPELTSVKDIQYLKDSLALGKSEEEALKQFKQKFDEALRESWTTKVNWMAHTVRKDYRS
PIK3CA (human), sequence (P42336 whole entry, looked up): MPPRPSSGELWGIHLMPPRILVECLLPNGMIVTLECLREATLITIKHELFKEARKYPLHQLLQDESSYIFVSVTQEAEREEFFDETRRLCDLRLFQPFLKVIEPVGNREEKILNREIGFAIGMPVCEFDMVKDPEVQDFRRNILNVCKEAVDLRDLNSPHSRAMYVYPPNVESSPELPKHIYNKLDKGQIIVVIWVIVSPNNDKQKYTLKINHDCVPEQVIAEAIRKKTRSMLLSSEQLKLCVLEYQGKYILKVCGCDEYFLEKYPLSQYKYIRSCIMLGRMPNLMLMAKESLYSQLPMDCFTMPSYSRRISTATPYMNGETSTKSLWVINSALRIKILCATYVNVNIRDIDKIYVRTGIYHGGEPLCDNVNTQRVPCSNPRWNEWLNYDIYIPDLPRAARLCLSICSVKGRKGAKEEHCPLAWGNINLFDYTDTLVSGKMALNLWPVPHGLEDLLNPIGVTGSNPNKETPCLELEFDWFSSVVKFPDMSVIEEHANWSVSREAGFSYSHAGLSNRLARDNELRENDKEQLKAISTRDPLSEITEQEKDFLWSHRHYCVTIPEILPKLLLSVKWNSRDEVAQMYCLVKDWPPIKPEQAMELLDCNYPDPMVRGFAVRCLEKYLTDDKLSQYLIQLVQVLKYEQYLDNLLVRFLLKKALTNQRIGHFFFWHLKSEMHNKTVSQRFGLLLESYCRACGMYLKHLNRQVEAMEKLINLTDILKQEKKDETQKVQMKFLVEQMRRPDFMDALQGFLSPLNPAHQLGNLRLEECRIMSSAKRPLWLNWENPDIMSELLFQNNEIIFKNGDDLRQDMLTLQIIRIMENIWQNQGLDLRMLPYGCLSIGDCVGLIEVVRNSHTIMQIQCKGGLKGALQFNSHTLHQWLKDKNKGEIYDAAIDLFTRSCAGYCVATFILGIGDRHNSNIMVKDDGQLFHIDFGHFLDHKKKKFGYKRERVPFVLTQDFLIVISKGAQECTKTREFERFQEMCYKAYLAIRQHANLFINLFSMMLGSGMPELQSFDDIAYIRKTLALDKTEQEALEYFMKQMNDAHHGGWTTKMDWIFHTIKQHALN

Compound `CC(=O)Nc1nc2ccc(-c3cccc(N)c3)nc2s1` yielded an IC50 in experiment [1] of 13300 nM.
The same measure, in the same setting: the value for `COc1ccc(COc2nccc(-c3ccc4nc(NC(C)=O)sc4c3)n2)cc1` was 13300 nM.
Turning to `CC(=O)Nc1nc2ccc(-c3cnc(Cl)c(OC(C)C)c3)cc2s1`, the results for the 50% inhibitory concentration (IC50) in experiment [2] and in experiment [1] were 44.1 nM and 472 nM, respectively.
`COc1cc(-c2ccc3nc(NC(C)=O)sc3c2)cnc1Br` returned an IC50 in experiment [1] of 13300 nM.
Take `CC(=O)Nc1nc2ccc(-c3ccnc(N4CCC[C@@H]4c4ccccc4)n3)cc2s1`: the half-inhibitory concentration (IC50) in experiment [2] was 2620 nM; in experiment [1], 1610 nM.
Turning to `CC(=O)Nc1nc2ccc(-c3ccnc(OCCCN4CCOCC4)n3)cc2s1`, in experiment [1], the IC50 amounted to 11000 nM.
Take `CC(=O)Nc1nc2ccc(-c3cnc(Cl)c(F)c3)cc2s1`: in experiment [1], the IC50 amounted to 13300 nM.
Consider `CC(=O)Nc1nc2ccc(-c3ccnc(N4CCC[C@@H]4c4ccccc4C)n3)cc2s1`, for which the IC50 in experiment [2] was 1560 nM; in experiment [1], 778 nM.
Consider `CC(=O)Nc1nc2ccc(-c3cnc(Cl)c(OC4CCOC4)c3)cc2s1` (stereo not drawn), for which the figures for the IC50 in experiment [2] and in experiment [1] were 169 nM and 2870 nM, respectively.
